In PMC5291411, “Cytotoxic conjugates of betulinic acid and substituted triazoles prepared by Huisgen Cycloaddition from 30-azidoderivatives” (PLoS ONE, 2017):

Legend:
CCRF-CEM = assay: Cytotoxic MTS assay, CCRF-CEM; assay type: cell-based; conditions: Homo sapiens, 72 h, T-lymphoblastic leukemia
From the text: (§1) Cytotoxic activity of all synthesized compounds was investigated in vitro against eight human cancer cell lines and two non-tumor fibroblasts using the standard MTS test (Table 1). The cancer cell lines were derived from T-lymphoblastic leukemia CCRF-CEM, leukemia K562 and their multiresistant counterparts expressing P-glycoprotein, MRP1 and LRP proteins (CEM-DNR, K562-TAX), solid tumors including lung (A549) and colon (HCT116, HCT116p53-/-) carcinomas, osteosarcoma cell line (U2OS), and for comparison, tests were performed on two human non-cancer fibroblast cell lines (BJ, MRC-5).
(§2) Biological assays were performed in concordance with our previous publications [[29], [58]; [60]; [61]]. All cells (if not indicated otherwise) were purchased from the American Tissue Culture Collection (ATCC). The CCRF-CEM line is derived from T lymphoblastic leukemia, evincing high chemosenzitivity, K562 represent cells from an acute myeloid leukemia patient sample with bcr-abl translocation, U2OS line is derived from osteosarcoma, HCT116 is colorectal tumor cell line and its p53 gene knock-down counterpart (HCT116p53-/-, Horizon Discovery Ltd, UK) is a model of human cancers with p53 mutation frequently associated with poor prognosis, A549 line is lung adenocarcinoma. The daunorubicin resistant subline of CCRF-CEM cells (CEM-DNR bulk) and paclitaxel resistant subline K562-TAX were selected in our laboratory by the cultivation of maternal cell lines in increasing concentrations of daunorubicine or paclitaxel, respectively. The CEM-DNR bulk cells overexpress MRP-1 and P-glycoprotein protein, while K562-TAX cells overexpress P-glycoprotein only. Both proteins belong to the family of ABC transporters and are involved in the primary and/or acquired multidrug resistance phenomenon. MRC-5 and BJ cell lines were used as a non-tumor control and represent human fibroblasts. The cells were maintained in nunc/corning 80 cm^2 plastic tissue culture flasks and cultured in cell culture medium according to ATCC or Horizon recommendations (DMEM/RPMI 1640 with 5 g/L glucose, 2 mM glutamine, 100 U/mL penicillin, […] streptomycin, 10% fetal calf serum, and NaHCO3).
(§3) MTS assay was performed at Institute of Molecular and Translational Medicine by robotic platform (HighResBiosolutions). Cell suspensions were prepared and diluted according to the particular cell type and the expected target cell density (25000–35000 cells/mL based on cell growth characteristics). Cells were added by automatic pipetor (30 μL) into 384 well microtiter plates. All tested compounds were dissolved in 100% DMSO and four-fold dilutions of the intended test concentration were added in 0.15 μL aliquots at time zero to the microtiter plate wells by the echoacustic non-contact liquid handler Echo550 (Labcyte). The experiments were performed in technical duplicates and three biological replicates at least. The cells were incubated with the tested compounds for 72 h at 37°C, in a 5% CO2 atmosphere at 100% humidity. At the end of the incubation period, the cells were assayed by using the MTS test. Aliquots (5 μL) of the MTS stock solution were pipetted into each well and incubated for additional 1–4 h. After this incubation period, the optical density (OD) was measured at 490 nm with an Envision reader (Perkin Elmer). Tumor cell survival (TCS) was calculated by using the following equation: TCS = (ODdrug-exposed well/mean ODcontrol wells) × 100%. The IC50 value, the drug concentration that is lethal to 50% of the tumor cells, was calculated from the appropriate dose-response curves in Dotmatics software.

CEM-DNR = assay: Cytotoxic MTS assay, CEM-DNR; assay type: cell-based; conditions: Homo sapiens, 72 h, daunorubicin resistant subline of CCRF-CEM
From the text: as §1, §2, §3

K562 = assay: Cytotoxic MTS assay, K562; assay type: cell-based; conditions: Homo sapiens, 72 h, leukemia
From the text: as §1, §2, §3

K562-TAX = assay: Cytotoxic MTS assay, K562-TAX; assay type: cell-based; conditions: Homo sapiens, 72 h, paclitaxel resistant subline of K562
From the text: as §1, §2, §3

A549 = assay: Cytotoxic MTS assay, A549; assay type: cell-based; conditions: Homo sapiens, 72 h, lung adenocarcinoma
From the text: as §1, §2, §3

HCT116 = assay: Cytotoxic MTS assay, HCT116; assay type: cell-based; conditions: Homo sapiens, HCT-116, 72 h, colorectal tumor
From the text: as §1, §2, §3

HCT116p53-/- = assay: Cytotoxic MTS assay, HCT116p53-/-; assay type: cell-based; conditions: Homo sapiens, 72 h, p53 knock-down colorectal tumor
From the text: as §1, §2, §3

U2OS = assay: Cytotoxic MTS assay, U2OS; assay type: cell-based; conditions: Homo sapiens, 72 h, osteosarcoma
From the text: as §1, §2, §3

BJ = assay: Cytotoxic MTS assay, BJ fibroblasts; assay type: cell-based; conditions: Homo sapiens, 72 h, non-tumor fibroblasts
From the text: as §1, §2, §3

MRC-5 = assay: Cytotoxic MTS assay, MRC-5 fibroblasts; assay type: cell-based; conditions: Homo sapiens, MRC5, 72 h, non-tumor fibroblasts
From the text: as §1, §2, §3

Work on `C=C(CBr)[C@@H]1CC[C@]2(C(=O)O)CC[C@]3(C)C(CCC4[C@@]5(C)CC[C@H](O[Si](c6ccccc6)(c6ccccc6)c6ccccc6)C(C)(C)C5CC[C@]43C)C12` (stereo partly drawn) [Compound 5, 3β-O-Triphenylsilyl-30-bromobetulinic acid] yielded an IC50 (CCRF-CEM) of over 50 µM, an IC50 (CEM-DNR) of 13.2 µM and an IC50 (K562) of over 50 µM. It also gave an IC50 (K562-TAX) of 12.2 µM, an IC50 (A549) of over 50 µM and an IC50 (HCT116) of 35.6 µM. It also gave an IC50 (HCT116p53-/-) of 31.1 µM, an IC50 (U2OS) of 27.9 µM and an IC50 (BJ) of over 50 µM. The IC50 (MRC-5) was over 50 µM and the melting point was 208 to 210 °C.
